Where a SMILES comes first, the peptide text is derived from it. [ ]: non-standard residue; d: D form. pGlu = O=C1CC[C@@H](C(=O)O)N1
Legend:
[1] = system: Male CD Charles River rats; test: Potentiation of the hypotensive effect of adenosine; format: in vivo, rat; conditions: for Effect on the hypotensive effect of adenosine: tripeptide 0.1 mg/kg in the vein, 15 minutes before adenosine (0.15 mg/kg in the vein)
Description: (§1) Male CD Charles River rats weighing 220-250 g were used, anesthetized with ethyl urethane (1.75 g/kg intraperitoneally). After incannulation of the trachea, the right carotid was isolated and connected by a cannula to a pressure measurement device. The isolated left carotid was used to record the flow by means of an electromagnetic flussimeter. Other parameters recorded were: dp/dt, ECG (electrocardiogram), BPM (beats per minute). All values were recorded on an 8 channel Hewlett Packard polygraph.
(§2) The tripeptides were dissolved in 0.9% NaCl and injected in the right femoral vein.
Any interference of synthesized peptides with the hemodynamic effects of adenosine would be shown using the method described. […] In this case the compound according to the invention was pGLU-GLU-TRP.

female Swiss albino mice = test: Analgesic activity, writhing test with 3% aqueous acetic acid; format: in vivo, mouse; conditions: for Analgesic activity (mean reduction of number of contorsions vs controls): 20 minute observation
Description: This activity was evaluated with the writhing test, using a 3% aqueous acetic acid solution as pain-causing agent, injected intraperitoneally (0.1 ml/10 g). The experiment was performed with 80 female Swiss albino mice weighing 18-24 g, fasting for three hours and divided into groups of 20 animals each: (1) controls, treated with 0.9% NaCl; (2) those treated with the test tripeptide (10 mg/kg intraperitoneally); (3) those treated with adenosine (2 mg/kg intraperitoneally); (4) those treated with the tripeptide (10 mg/kg intraperitoneally) and adenosine (2 mg/kg intraperitoneally). In groups 1 and 2 the substances were administered 40 minutes before the acetic acid; in group 3 the adenosine was administered 10 minutes before the acetic acid; in group 4 the adenosine was administered 30 minutes after the tripeptide and 10 minutes before the acetic acid. After the acetic acid innoculation, the animals were placed in groups of 5 in plastic cages, and observed for a 20 minute period. The number of contorsions the animals made during that period was recorded. Based on the mean reduction of the number of contorsions of the treated animals with respect to the controls, the analgesic action of the test substance was calculated.

[2] = system: Male CD Charles River rats; test: Hypotensive effect in anesthetized rats (carotid pressure after intravenous injection); format: in vivo, rat; conditions: dose of 2 mg/kg, injected in the right femoral vein, in 0.9% NaCl, urethane-anesthetized rats
Description: as §1, with “After” for “Male CD Charles River rats weighing 220-250 g were used, anesthetized with ethyl urethane (1.75 g/kg intraperitoneally). After”
as §2

Row | Structure (SMILES) | Δ on maximum (lowering of the maximum pressure) [2] | Δ on minimum (lowering of the minimum pressure) [2] | further results
1 | Nc1ncnc2c1ncn2[C@@H]1O[C@H](CO)[C@@H](O)[C@H]1O [adenosine, reference compound] |  |  | Hemodynamic effect of adenosine alone ([1]; 0.15 mg/kg in the vein): transient hypotensive effect; Analgesic activity (mean reduction of number of contorsions vs controls) (female Swiss albino mice; adenosine 2 mg/kg intraperitoneally, 10 minutes before acetic acid): 20%
2 | C[C@H](NC(=O)[C@@H]1CCC(=O)N1)C(=O)N[C@@H](Cc1c[nH]c2ccccc12)C(=O)O [pGLU--ALA--TRP, pGLU-ALA-TRP] ([pGlu]-Ala-Trp-OH) | 10 mm Hg | 20 mm Hg | 
3 | N=C(N)NCCC[C@H](NC(=O)[C@@H]1CCC(=O)N1)C(=O)N[C@@H](Cc1c[nH]c2ccccc12)C(=O)O [pGLU--ARG--TRP, pGLU-ARG-TRP] ([pGlu]-Arg-Trp-OH) | 25 mm Hg | 15 mm Hg | 
4 | NC(=O)C[C@H](NC(=O)[C@@H]1CCC(=O)N1)C(=O)N[C@@H](Cc1c[nH]c2ccccc12)C(=O)O [pGLU--ASN--TRP, pGLU-ASN-TRP] ([pGlu]-Asn-Trp-OH) | 35 mm Hg | 20 mm Hg | Effect on the hypotensive effect of adenosine [1]: potentiates and prolongs the hypotensive effect; Analgesic activity of tripeptide together with adenosine (female Swiss albino mice; tripeptide 10 mg/kg i.p. plus adenosine 2 mg/kg i.p. given 30 minutes after the tripeptide and 10 minutes before acetic acid): additive effect; Analgesic activity (mean reduction of number of contorsions vs controls) (female Swiss albino mice; tripeptide 10 mg/kg intraperitoneally, 40 minutes before acetic acid): 25%
5 | O=C(O)C[C@H](NC(=O)[C@@H]1CCC(=O)N1)C(=O)N[C@@H](Cc1c[nH]c2ccccc12)C(=O)O [pGLU--ASP--TRP, pGLU-ASP-TRP] ([pGlu]-Asp-Trp-OH) | 10 mm Hg | 10 mm Hg | 
6 | NC(=O)CC[C@H](NC(=O)[C@@H]1CCC(=O)N1)C(=O)N[C@@H](Cc1c[nH]c2ccccc12)C(=O)O [pGLU--GLN--TRP, pGLU-GLN-TRP] ([pGlu]-Gln-Trp-OH) | 20 mm Hg | 10 mm Hg | 
7 | O=C(O)CC[C@H](NC(=O)[C@@H]1CCC(=O)N1)C(=O)N[C@@H](Cc1c[nH]c2ccccc12)C(=O)O [pGLU--GLU--TRP, pGLU-GLU-TRP] ([pGlu]-Glu-Trp-OH) | 20 mm Hg | 10 mm Hg | Effect on the hypotensive effect of adenosine [1]: potentiates and prolongs the hypotensive effect
8 | O=C(CNC(=O)[C@@H]1CCC(=O)N1)N[C@@H](Cc1c[nH]c2ccccc12)C(=O)O [pGLU--GLY--TRP, p-GLU-GLY-TRP] ([pGlu]-Gly-Trp-OH) | 25 mm Hg | 35 mm Hg | 
9 | CCOC(=O)[C@H](Cc1c[nH]c2ccccc12)NC(=O)[C@@H](NC(=O)[C@@H]1CCC(=O)N1)[C@@H](C)CC [pGLU--ILE--TRP--OEt] ([pGlu]-Ile-Trp-OEt) | 30 mm Hg | 25 mm Hg | 
10 | CC(C)C[C@H](NC(=O)[C@@H]1CCC(=O)N1)C(=O)N[C@@H](Cc1c[nH]c2ccccc12)C(=O)O [pGLU--LEU--TRP, pGLU-LEU-TRP] ([pGlu]-Leu-Trp-OH) | 30 mm Hg | 30 mm Hg | 
11 | CCOC(=O)[C@H](Cc1c[nH]c2ccccc12)NC(=O)[C@H](CC(C)C)NC(=O)[C@@H]1CCC(=O)N1 [pGLU--LEU--TRP--OEt, pGLU-LEU-TRP-OEt] ([pGlu]-Leu-Trp-OEt) | 30 mm Hg | 20 mm Hg | 
12 | NCCCC[C@H](NC(=O)[C@@H]1CCC(=O)N1)C(=O)N[C@@H](Cc1c[nH]c2ccccc12)C(=O)O [pGLU--LYS--TRP, pGLU-LYS-TRP] ([pGlu]-Lys-Trp-OH) | 35 mm Hg | 25 mm Hg | 
13 | O=C1CC[C@@H](C(=O)N[C@@H](CO)C(=O)N[C@@H](Cc2c[nH]c3ccccc23)C(=O)O)N1 [pGLU--SER--TRP, pGLU-SER-TRP] ([pGlu]-Ser-Trp-OH) | 45 mm Hg | 35 mm Hg | 

Reference: patent US4619916A, “Tripeptide compounds containing pyroglutamic acid and tryptophan, process for their production and therapeutic applications” (Polifarma S.p.A., priority 1984, dated 1986)
